Key:
cucumber anthracnose = test: Fungicidal activity in vivo, cucumber anthracnose; conditions: plants sprayed, inoculated after 24 hours
Description: (§1) Determine the fungicidal activities of the compounds of the present invention against plant diseases, carried by following procedure:
(§2) Determination of Fungicidal Activity In Vivo:
(§3) Compounds were dissolved in acetone, and diluted to required concentration with water containing 0.1% of tween 80. Plants were sprayed by a sprayer. After 24 hours, plants were innoculated and then transferred into a dew chamber for infection. After the infection period normally one week), the plants were scored for disease control.

[1] = test system: diamond backmoth (Plutella xylostella); test: Insecticidal activity, spray test, diamond backmoth; assay type: in vivo; conditions: 600 ppm, mortality after two to three days
Description: (§4) Determination of insecticidal and acaricidal activity of selected compounds were carried out by following procedure:
(§5) Compounds were dissolved in mixed solvent (acetone:methanol=1:1), and diluted to required concentration with water containing 0.1% of tween 80.
(§6) The armyworm (Leucania separata), the second stage Juvenile of diamond backmoth (Plutella xylostella), lesser army worm (Spodoptera exiqua), green peach aphids (Myzus persicae) and mite (Tetranychus cinnabarinus) were used in biological test. The test was employed either spraying by airbrush. A test solution (0.5 ml) was sprayed at the pressure of 10 psi (0.7 kg/cm^2). Percent mortality was determined after two to three days.

[2] = test system: lesser army worm (Spodoptera exiqua); test: Insecticidal activity, spray test, lesser armyworm; assay type: in vivo; conditions: mortality after two to three days
Description: as §4, §5, §6

plant diseases = test: Fungicidal activity in vivo against plant diseases (overall); conditions: 400 ppm
Description: as §1, §2, §3

SMILES	control of diamond backmoth [1] [%]	control of lesser armyworm ([2]; 600 ppm) [%]	other results
Cc1cc(C(=O)NCCNc2ncc(C#N)cc2Cl)ccc1NC(=O)c1cc(Br)nn1-c1ncccc1Cl [83 in Table 96]			control of cucumber anthracnose (cucumber anthracnose; 400 ppm): 100%
Cc1cc(Cl)cc(C(=O)NCCNc2ccc(C(F)(F)F)cc2Cl)c1NC(=O)c1cc(Br)nn1-c1ncccc1Cl [Table 173-83]	100	100	
Cc1cc(Cl)cc(C(=O)NCCNc2ncccc2Cl)c1NC(=O)c1cc(Br)nn1-c1ncccc1Cl [Table 179-83]	100	100	
Cc1cc(Cl)cc(C(=O)NCCCNc2ncccc2Cl)c1NC(=O)c1cc(Br)nn1-c1ncccc1Cl [Table 179-199]	100	100	
Cc1cc(Cl)cc(C(=O)N2CCN(c3ncccc3Cl)CC2)c1NC(=O)c1cc(Br)nn1-c1ncccc1Cl [Table 179-303]	100	100	
Cc1cc(Cl)cc(C(=O)NC(C)CNc2ncccc2Cl)c1NC(=O)c1cc(Br)nn1-c1ncccc1Cl (centres unmarked) [Table 179-304]	100	100	control of cucumber anthracnose (cucumber anthracnose; 50 ppm): 100%; control of cucumber anthracnose (cucumber anthracnose; 400 ppm): 100%; control of lesser armyworm ([2]; 1 ppm): 100%; control of lesser armyworm ([2]; 10 ppm): 100%
Cc1cc(Cl)cc(C(=O)NCCNc2ncc(C(F)(F)F)cc2Cl)c1NC(=O)c1cc(Br)nn1-c1ncccc1Cl [Table 181-83]	100	100	control of cucumber anthracnose (cucumber anthracnose; 50 ppm): 100%; control of cucumber anthracnose (cucumber anthracnose; 400 ppm): 100%; control of lesser armyworm ([2]; 0.1 ppm): more than 60%; control of lesser armyworm ([2]; 1 ppm): 100%; control of lesser armyworm ([2]; 10 ppm): 100%
Cc1cc(Cl)cc(C(=O)NCCCNc2ncc(C(F)(F)F)cc2Cl)c1NC(=O)c1cc(Br)nn1-c1ncccc1Cl [Table 181-199]	100	100	control of lesser armyworm ([2]; 1 ppm): 100%; control of lesser armyworm ([2]; 10 ppm): 100%
Cc1cc(Cl)cc(C(=O)N2CCN(c3ncc(C(F)(F)F)cc3Cl)CC2)c1NC(=O)c1cc(Br)nn1-c1ncccc1Cl [Table 181-303]	100	100	
Cc1cc(Cl)cc(C(=O)NC(C)CNc2ncc(C(F)(F)F)cc2Cl)c1NC(=O)c1cc(Br)nn1-c1ncccc1Cl (centres unmarked) [Table 181-304]	100	100	
Cc1cc(Cl)cc(C(=O)NCCNc2ncc(C#N)cc2Cl)c1NC(=O)c1cc(Br)nn1-c1ncccc1Cl [Table 182-83]	100	100	
Cc1cc(Cl)cc(C(=O)NCCCNc2ncc(C#N)cc2Cl)c1NC(=O)c1cc(Br)nn1-c1ncccc1Cl [Table 182-199]	100	100	
Cc1cc(Cl)cc(C(=O)NCCNc2ncc(Cl)cc2Cl)c1NC(=O)c1cc(Br)nn1-c1ncccc1Cl [Table 211-83]	100	100	control of cucumber anthracnose (cucumber anthracnose; 400 ppm): 100%
Cc1cc(Cl)cc(C(=O)NCCCNc2ncc(Cl)cc2Cl)c1NC(=O)c1cc(Br)nn1-c1ncccc1Cl [Table 211-199]	100	100	control of lesser armyworm ([2]; 10 ppm): 100%
CNC(=O)c1cc(Cl)cc(C)c1NC(=O)c1cc(Br)nn1-c1ncccc1Cl [chlorantraniliprole]			fungicidal activity (plant diseases): no fungicidal activity

Reference: patent US8455398B2, “Amide compounds, preparation methods and uses thereof” (Sinochem Corporation, priority 2008, dated 2013)
